In patent US20080145313A1, “Compositions and Methods for the Treatment and Prevention of Neoplastic Disorders” (Genesis Research & Development Corporation Limited, priority 2006, published 2008):

Tests used:
[1] = system: target transcript mRNA in A549 cells; assay: Level of mRNA of target transcript in A549 cells by quantitative RT-PCR (Tables 12 and 13); type: cell-based, human; details: 24 h post-transfection; for mRNA knockdown of energy and metabolism gene target transcript, 0.1 nM / mRNA knockdown of transporter gene target transcript, 0.1 nM: 0.1 nM siRNA; for mRNA knockdown of energy and metabolism gene target transcript, 1 nM / mRNA knockdown of transporter gene target transcript, 1 nM: 1 nM siRNA
Protocol: A549 cells were transfected as described before with 0.1, 1.0 and 10 nM siRNA as listed in Tables 10 and 11 and the relative mRNA levels quantified 24 h post-transfection. RNA was purified from cells using Trizol® extraction as per the manufacturer's protocol (Invitrogen). cDNA was prepared by digesting approximately 200 ng purified RNA with DNAse I (Invitrogen) for 15 minutes at room temperature, followed by 15 minutes at 65° C. in the presence of 25 mM EDTA. 30 ng random primers were added and incubated for 10 minutes at 65° C., 1 minute on ice; Superscript® III polymerase (Invitrogen) was added in presence of 5 nM DTT (Invitrogen) and 1 mM deoxyribonucleotides (Invitrogen), and the reaction incubated at 25° C. for 5 minutes, followed by an hour at 50° C. cDNA was diluted 1:3 in 10 mM Tris pH 7.0, and quantitative RT-PCR carried out on an ABI Prism 7900HT (Applied Biosciences, Inc., Foster City, Calif.) using FastStart TaqMan SYBRGreen (Roche, Basel, Switzerland) or Platinum SYBR Green (Invitrogen) and 360 nM of the primers specific for gene targets and housekeeping genes HPRT and Lamin. Reduction in target mRNA levels following siRNA transfection are given in Tables 12 and 13, together with the gene specific primer sequences. Primer sequences used for the housekeeping genes HPRT and Lamin are given in SEQ ID NO: 4885-4888.

A549 cells = assay: Growth inhibition of siRNA-transfected A549 cells, SYBR Green I DNA content; type: cell-based, human; details: 10 nM siRNA; DNA content 96 hours after transfection
Protocol: A549 cells (human lung cancer cell line; ATCC No. CCL-185), SK-MeI-5 cells (human melanoma cell line; ATCC No. HTB-70), MCF-7 cells (human adenocarcinoma cell line; ATCC No. HTB-22), HCT-116 cells (colorectal carcinoma; ATCC CCL-247) and HCT-116 p53 null cells (derived from ATCC No. CCL-247; Bunz et al., Science 282:1497-1501, 1998) were cultured in RPMI 1640 medium with 10% v/v heat-inactivated fetal calf serum (FCS). Cells were seeded at a density of 5×10^4 cells/cm^2 in multi-well tissue culture plates. Sequences of Stealth™ siRNA duplexes (Invitrogen) targeting human ribonucleotide reductase subunit 1 (SEQ ID NO: 22) and subunit 2 (SEQ ID NO; 38) are given in SEQ ID NO: 4830-4832 (DNA), and SEQ ID NO: 5136-5138 (RNA) for RRM1, and SEQ ID NO: 5306-5308 (DNA), and SEQ ID NO: 5303-5305 (RNA) for RRM2. siRNAs were transfected at different concentrations into cells using Lipofectamine™ RNAiMAX transfection reagent (Invitrogen). Non-specific siRNA (SEQ ID NO: 4804 and 4805 (DNA), and SEQ ID NO: 5301 and 5302 (RNA)) were used as controls. The cellular DNA content was measured using a SYBR Green I-based fluorometric assay at 24, 48, 72 and 96 hours after transfection (120 hours for the MCF-7 cells), as follows. At the indicated time points following reverse transfection, cells were harvested and frozen at −80° C. overnight. Cells were thawed and cell lysis buffer (phosphate-buffered saline (PBS) containing 1% Triton X-100, pH 7) and SYBR Green I (1:10^5 V/V; Invitrogen) was added to the wells and incubated overnight in the dark at 4° C.
The following day, cell lysates were mixed thoroughly, and DNA fluorescence was measured with a Wallac Victor^2 plate reader (Turku, Finland) set at an excitation frequency of 485 nm and measuring emission at 535 nm.
To determine the duration of the knock-down effect of RRM1-targeting siRNA, A549 cells were reverse transfected with 1 or 10 nM RRM1-3 (SEQ ID NO: 4832 (DNA, and SEQ ID NO: 5138 (RNA)) or control siRNA (SEQ ID NO: 4804 (DNA), and SEQ ID NO: 5301 (RNA)), and growth followed over time. Growth inhibition was measured daily as described above for up to ten days. RRM1-3-mediated RRM1 silencing inhibited growth for at least 10 days post-transfection at both 1 and 10 nM (FIG. 11).
siRNA-mediated inhibition of cancer cell growth was determined in A549 cells as follows. A549 cells (human lung cancer cell line; ATCC No. CCL-185) were cultured in RPMI 1640 medium with 10% v/v heat-inactivated fetal calf serum. Cells were seeded at a density of 5×10^3 cells/cm^2 in multi-well tissue culture plates. Stealth™ siRNA duplexes (Invitrogen) targeting genes involved in cancer energy and metabolism pathways and listed in Table 9, were transfected at 10 nM into cells using Lipofectamine™ RNAiMAX transfection reagent (Invitrogen). Non-specific siRNA (SEQ ID NO: 4804 and 4805 (DNA), and SEQ ID NO: 5301 and 5302 (RNA)) were used as controls. The cellular DNA content was measured using a SYBR Green I-based fluorometric assay at 96 hours after transfection. The cells were harvested and frozen at −80° C. overnight. Cells were thawed and cell lysis buffer (phosphate-buffered saline (PBS) containing 1% Triton X-100, pH 7) and SYBR Green I (1:10^5 v/v; Invitrogen) was added to the wells and incubated overnight in the dark at 4° C. The following day, cell lysates were mixed thoroughly, and DNA fluorescence was measured with a Wallac Victor^2 plate reader (Turku, Finland) set at an excitation frequency of 485 nm and measuring emission at 535 nm.
Three different siRNAs were tested for each target gene. The average fluorescence units from three replicate wells, representing the amount of DNA per well, were used to determine the effect on growth inhibition. The results are given in Table 10 (energy and metabolism gene targets) and Table 11 (transporter gene targets).
siRNA-mediated RNAi was also determined on a panel of different cell lines. […]

3593 (TTGCCAAAAACAGAGGAGCAAGATACAGGC; chemistry not given here) [compound 3593]
mRNA knockdown of energy and metabolism gene target transcript, 0.1 nM [1]: − (<50% mRNA knockdown) | mRNA knockdown of energy and metabolism gene target transcript, 1 nM [1]: + (50-70% mRNA knockdown)

3594 (CAGGAAGATCCTGCTCATCAG; chemistry not given here) [compound 3594]
mRNA knockdown of energy and metabolism gene target transcript, 0.1 nM [1]: − (<50% mRNA knockdown) | mRNA knockdown of energy and metabolism gene target transcript, 1 nM [1]: + (50-70% mRNA knockdown)

3595 (ACAGGAAGATCCTGCTCATCAG; chemistry not given here) [compound 3595]
mRNA knockdown of energy and metabolism gene target transcript, 0.1 nM [1]: + (50-70% mRNA knockdown) | mRNA knockdown of energy and metabolism gene target transcript, 1 nM [1]: ++ (70-90% mRNA knockdown)

3596 (AACAGGAAGATCCTGCTCATCAG; chemistry not given here) [compound 3596]
mRNA knockdown of energy and metabolism gene target transcript, 0.1 nM [1]: + (50-70% mRNA knockdown) | mRNA knockdown of energy and metabolism gene target transcript, 1 nM [1]: ++ (70-90% mRNA knockdown)

3597 (CAACAGGAAGATCCTGCTCATCAG; chemistry not given here) [compound 3597]
mRNA knockdown of energy and metabolism gene target transcript, 0.1 nM [1]: + (50-70% mRNA knockdown) | mRNA knockdown of energy and metabolism gene target transcript, 1 nM [1]: ++ (70-90% mRNA knockdown)

SEQ ID NO: 4806: siRNA targeting ARNT (HIF-1β) (chain 1 ATCAGTGGATGTGTTGCCAGTTCCC; chain 2 AUCAGUGGAUGUGUUGCCAGUUCCC; chemistry not given here; one strand in two spellings)
Growth Inhibition in A549 cells (A549 cells): − (no growth inhibition with any siRNA)

SEQ ID NO: 4807: siRNA targeting ARNT (HIF-1β) (chain 1 TGCACCTGATCATAGAGTGTGCTGC; chain 2 UGCACCUGAUCAUAGAGUGUGCUGC; chemistry not given here; one strand in two spellings)
Growth Inhibition in A549 cells (A549 cells): + (inhibits by at least 50%)

SEQ ID NO: 4808: siRNA targeting ARNT (HIF-1β) (chain 1 TCTCATGGAAGACTGCTGACCTTCC; chain 2 UCUCAUGGAAGACUGCUGACCUUCC; chemistry not given here; one strand in two spellings)
Growth Inhibition in A549 cells (A549 cells): − (no growth inhibition with any siRNA)

SEQ ID NO: 4809: siRNA targeting H6PD (G6PDH) (chain 1 TTTGCCAGACATCAGGATGAAAGGC; chain 2 UUUGCCAGACAUCAGGAUGAAAGGC; chemistry not given here; one strand in two spellings)
Growth Inhibition in A549 cells (A549 cells): ++ (inhibits by at least 75%)

SEQ ID NO: 4810: siRNA targeting H6PD (G6PDH) (chain 1 TCTTGAACAAGATCCGAGCGTAGCC; chain 2 UCUUGAACAAGAUCCGAGCGUAGCC; chemistry not given here; one strand in two spellings)
Growth Inhibition in A549 cells (A549 cells): − (no growth inhibition with any siRNA)

SEQ ID NO: 4811: siRNA targeting H6PD (G6PDH) (chain 1 TTATGGAGACATGTCCCTGGAGCTC; chain 2 UUAUGGAGACAUGUCCCUGGAGCUC; chemistry not given here; one strand in two spellings)
Growth Inhibition in A549 cells (A549 cells): − (no growth inhibition with any siRNA)

SEQ ID NO: 4812: siRNA targeting HK-II (chain 1 ATACTGGTCAACCTTCTGCACTTGG; chain 2 AUACUGGUCAACCUUCUGCACUUGG; chemistry not given here; one strand in two spellings)
Growth Inhibition in A549 cells (A549 cells): − (no growth inhibition with any siRNA)

SEQ ID NO: 4814: siRNA targeting HK-II (chain 1 TTAACAATGATGCTGTCGTCACAGG; chain 2 UUAACAAUGAUGCUGUCGUCACAGG; chemistry not given here; one strand in two spellings)
Growth Inhibition in A549 cells (A549 cells): − (no growth inhibition with any siRNA)

SEQ ID NO: 4815: siRNA targeting LDHA/5 (chain 1 ATTAAGACGGCTTTCTCCCTCTTGC; chain 2 AUUAAGACGGCUUUCUCCCUCUUGC; chemistry not given here; one strand in two spellings)
Growth Inhibition in A549 cells (A549 cells): − (no growth inhibition with any siRNA)

SEQ ID NO: 4816: siRNA targeting LDHA/5 (chain 1 AAATATGTTCACGTTACGCTGGACC; chain 2 AAAUAUGUUCACGUUACGCUGGACC; chemistry not given here; one strand in two spellings)
Growth Inhibition in A549 cells (A549 cells): + (inhibits by at least 50%)

SEQ ID NO: 4817: siRNA targeting LDHA/5 (chain 1 TATACTCTCTGCCAAATCTGCTACA; chain 2 UAUACUCUCUGCCAAAUCUGCUACA; chemistry not given here; one strand in two spellings)
Growth Inhibition in A549 cells (A549 cells): − (no growth inhibition with any siRNA)

SEQ ID NO: 4914: siRNA targeting SLC19A2 (ThTr1) (chain 1 TTATATAACCAACTGCAAACACAGC; chain 2 UUAUAUAACCAACUGCAAACACAGC; chemistry not given here; one strand in two spellings)
mRNA knockdown of transporter gene target transcript, 0.1 nM [1]: ++ (70-90% mRNA knockdown) | mRNA knockdown of transporter gene target transcript, 1 nM [1]: +++ (>90% mRNA knockdown)

SEQ ID NO: 4915: siRNA targeting SLC19A2 (ThTr1) (chain 1 ATGACATTCAGGCTGAACAGCGACC; chain 2 AUGACAUUCAGGCUGAACAGCGACC; chemistry not given here; one strand in two spellings)
mRNA knockdown of transporter gene target transcript, 0.1 nM [1]: ++ (70-90% mRNA knockdown) | mRNA knockdown of transporter gene target transcript, 1 nM [1]: ++ (70-90% mRNA knockdown)
